Laboratory results published in paper PMC9405596, “Evaluation of the Anti-Leishmania mexicana and -Trypanosoma brucei Activity and Mode of Action of 4,4′-(Arylmethylene)bis(3-methyl-1-phenyl-1H-pyrazol-5-ol)” (Biomedicines, 2022).
“Also recorded” adds a separate entry of the source. Read-outs that look alike come from different tables or passages of the source.

Columns and labels:
[1] = system: L. mexicana promastigotes; experiment: MTT viability assay against L. mexicana promastigotes; format: cell-based, Leishmania mexicana; conditions: for IC50: 48 h; for L. mexicana Promastigote SI vs. Hepatocytes: CC50 HepG2 hepatocytes/IC50 L. mexicana; for L. mexicana Promastigote SI vs. Macrophage: CC50 RAW macrophages/IC50 L. mexicana
Protocol: The leishmanicidal activity against promastigotes from L. mexicana was evaluated by measuring parasites’ mitochondrial activity using the MTT (Thiazolyl Blue Tetrazolium Bromide) colorimetric assay as described previously. […] The medium was renewed every third day and subcultures were prepared when parasite density reached 1 × 10^7 parasites/mL. A Neubauer chamber was used to determine parasite density.

[2] = system: bloodstream form of T. b. brucei (strain 427); experiment: Bioluminescence viability assay against bloodstream T. b. brucei expressing luciferase; conditions: for anti-T. brucei activity in preliminary screening, in words: 10 µM; for activity at 10 µM / inhibition at 10 µM / IC50: 24 h; for activity at 10 µM: read-out: T. brucei bloodstream % Growth (10 µM), 10 µM, 24 h; for inhibition at 10 µM: read-out: T. brucei growth inhibition at 10 µM; for T. brucei SI vs. Hepatocytes: CC50 HepG2 hepatocytes/IC50 T. brucei; for T. brucei bloodstream SI vs. Macrophages: CC50 RAW macrophages/IC50 T. brucei
[3] = MTT cytotoxicity assay, murine macrophages; format: cell-based; conditions: mouse, RAW 264.7 macrophage cells, RAW 264.7, 48 h
Protocol: (§1) Murine macrophages (cell line RAW 264.7, ATCC® TIB-71™) were grown in Dulbecco’s Modified Eagle Medium (DMEM) (Gibco, Invitrogen, Waltham, MA, USA) supplemented with 10% fetal bovine serum (FBS) (Eurobio) and 100 IU/mL penicillin + 100 µg/mL streptomycin (Gibco), at 37 °C, in an atmosphere containing 5% CO2. Human hepatocyte cell line HepG2 (ATCC® HB-8065™) was grown in MEM (Gibco, Invitrogen) supplemented with 10% FBS (Gibco, Invitrogen), 1% NEAA (Gibco, Invitrogen), and 1% L-glutamine (Gibco, Invitrogen). The medium was renewed twice a week. For both cell lines, the viability was determined using the MTT assay as described before for leishmanicidal activity assessment, with some variations. Here, 5 × 10^4 cells/well in a final volume of 100 µL were seeded into a 96-well plate, in triplicate for RAW macrophages and in duplicate for HepG2. Saponin (2.4 mg/mL) and untreated cells were used as positive control and negative control, respectively. Compounds were dissolved in DMSO to obtain different serial concentrations (1.56 to 800 µM) for RAW macrophages and 100–0.001 µM for HepG2. The final concentration of DMSO in each well was 0.5%. After exposure to compounds for 48 h and 72 h for RAW and HepG2 cells, respectively, 10 µL/well of MTT (5 mg/mL in PBS) was added, incubated at 37 °C for 2 h in darkness, and cells were pelleted via centrifugation at 4400 rpm for 10 min. The medium was removed, and 100 µL/well of DMSO was added to dissolve formazan. The absorbance at 570 and 630 nm was recorded following the same procedure as with parasites.

[4] = MTT cytotoxicity assay, HepG2; format: cell-based; conditions: human, HepG2 cells, HepG2, 72 h, read-out: CC50 HepG2 Hepatocytes
Protocol: as §1

[5] = Leishmania mexicana, read-out: L. mexicana Promastigote IC50, promastigotes, 48 h, MTT
[6] = read-out: L. mexicana Promastigote IC50, promastigotes, MTT
[7] = Trypanosoma brucei, read-out: T. brucei bloodstream IC50, 24 h, bioluminescence

Compound	IC50 [1, 5]	melting point	anti-T. brucei activity in preliminary screening, in words [2]	activity at 10 µM ([2]; Trypanosoma brucei)	inhibition at 10 µM ([2]; Trypanosoma brucei)	L. mexicana Promastigote SI vs. Hepatocytes [1]	L. mexicana Promastigote SI vs. Macrophage [1]	CC50 at 48 h [3]	CC50 at 72 h [4]	IC50 [1, 6]	T. brucei SI vs. Hepatocytes [2]	T. brucei bloodstream SI vs. Macrophages [2]	IC50 [2, 7]	IC50 ([2]; read-out: T. brucei bloodstream IC50, bioluminescence)	SI against T. brucei, range over both mammalian cell lines ([2]; murine macrophages and HepG2 hepatocytes)	CC50 at 48 h ([3]; positive control)
Cc1nn(-c2ccccc2)c(O)c1C(c1ccc(O)cc1)c1c(C)nn(-c2ccccc2)c1O [Compound 2o]	> 50 µM	217.2 to 218.9 °C	inactive	> 100%	0%											
Cc1nn(-c2ccccc2)c(O)c1C(c1ccc(N(C)C)cc1)c1c(C)nn(-c2ccccc2)c1O [Compound 2g]	> 50 µM	188.8 to 189.6 °C	inactive	> 100%												
Cc1nn(-c2ccccc2)c(O)c1C(c1ccc(OC(F)(F)F)cc1)c1c(C)nn(-c2ccccc2)c1O [Compound 2s]		174.5 to 176 °C	inactive	> 100%		8.7	14.3	49 ± 15 µM	26 ± 15 µM							
Cc1nn(-c2ccccc2)c(O)c1C(c1cccc(O)c1)c1c(C)nn(-c2ccccc2)c1O [Compound 2l]	18 ± 5 µM	165 to 167 °C	inactive	> 100%	0%	>5.6	6	108 ± 33 µM	> 100 µM							
Cc1nn(-c2ccccc2)c(O)c1C(c1cc(O)ccc1[N+](=O)[O-])c1c(C)nn(-c2ccccc2)c1O [Compound 2h]	21 ± 4 µM	205 to 207 °C (dec.)		89 ± 3%		>4.8	5.1	108 ± 22 µM	> 100 µM							
COc1ccc(C(c2c(C)nn(-c3ccccc3)c2O)c2c(C)nn(-c3ccccc3)c2O)cc1O [Compound 2j]	10 ± 4 µM	200 to 202 °C	inactive	> 100%		>10	11.3	113 ± 15 µM	> 100 µM							
Cc1nn(-c2ccccc2)c(O)c1C(c1ccc([N+](=O)[O-])cc1)c1c(C)nn(-c2ccccc2)c1O [Compound 2k]	≤ 10 µM			88 ± 4%		1.7	13	117 ± 15 µM	15 ± 6 µM	9 ± 1 µM						
Cc1nn(-c2ccccc2)c(O)c1C(c1ccccc1O)c1c(C)nn(-c2ccccc2)c1O [Compound 2a]	12 ± 3 µM	219.5 to 220.6 °C		77 ± 5%	23%		4.3	51 ± 6 µM	> 100 µM							
COc1cccc(C(c2c(C)nn(-c3ccccc3)c2O)c2c(C)nn(-c3ccccc3)c2O)c1 [Compound 2i]	10 ± 3 µM	205.7 to 207.1 °C	inactive	> 100%		>10	23.2	232 ± 25 µM	> 100 µM							
Cc1nn(-c2ccccc2)c(O)c1C(c1cccc(F)c1)c1c(C)nn(-c2ccccc2)c1O [Compound 2t]	11 ± 1 µM	178 to 179 °C	inactive	> 100%		1.8	10.5	115 ± 21 µM	20 ± 11 µM							
Cc1nn(-c2ccccc2)c(O)c1C(c1cccc([N+](=O)[O-])c1)c1c(C)nn(-c2ccccc2)c1O [Compound 2d]	≤ 10 µM			73 ± 4%		>10	7.5	75 ± 15 µM	> 100 µM	10 ± 3 µM						
Cc1nn(-c2ccccc2)c(O)c1C(c1ccccc1C(F)(F)F)c1c(C)nn(-c2ccccc2)c1O [Compound 2v, 4,4′-[(2-trifluoromethylphenyl)methylene]bis(3-methyl-1-phenyl-1H-pyrazol-5-ol)]	≤ 10 µM	245 to 248 °C	inactive; also recorded: lacked activity			3.5	15.1	91 ± 18 µM	21 ± 2 µM	6 ± 1 µM						
COC(=O)c1ccc(C(c2c(C)nn(-c3ccccc3)c2O)c2c(C)nn(-c3ccccc3)c2O)cc1 [Compound 2q]	13 ± 3 µM			≤ 50%		2.2	8.5	111 ± 2 µM	29 ± 4 µM		4.9	19	6 µM	5.9 ± 0.6 µM		
C[C@@H]1[C@H](O)[C@@H](C)/C=C/C=C/C=C/C=C/C=C/C=C/C=C/[C@H](O[C@@H]2O[C@H](C)[C@@H](O)[C@H](N)[C@@H]2O)C[C@@H]2O[C@](O)(C[C@@H](O)C[C@@H](O)[C@H](O)CC[C@@H](O)C[C@@H](O)CC(=O)O[C@H]1C)C[C@H](O)[C@H]2C(=O)O [Amphotericin B, reference compound]	0.17 ± 0.05 µM							> 5 µM								
Cc1nn(-c2ccccc2)c(O)c1C(c1ccccc1)c1c(C)nn(-c2ccccc2)c1O [Compound 2b]	32 ± 7 µM	159.5 to 161.1 °C		74 ± 7%		>3.1	6.4	206 ± 28 µM	> 100 µM							
Cc1nn(-c2ccccc2)c(O)c1C(c1ccc(F)cc1)c1c(C)nn(-c2ccccc2)c1O [Compound 2p]	17 ± 1 µM	183.8 to 185.8 °C		79 ± 8%		0.8	2.5	43 ± 6 µM	13 ± 2 µM							
COc1ccccc1C(c1c(C)nn(-c2ccccc2)c1O)c1c(C)nn(-c2ccccc2)c1O [Compound 2f]	22 ± 9 µM			≤ 50%		>4.5	4.2	93 ± 7 µM	> 100 µM		>12.5	11.6	8 ± 0.27 µM		11.6–18	
CC1(C)[C@@H](O[C@@H]2OC[C@H](O[C@@H]3OC[C@@H](O)[C@H](O)[C@H]3O)[C@H](O[C@H]3O[C@H](CO)[C@@H](O)[C@H](O)[C@H]3O)[C@H]2O[C@@H]2O[C@H](CO)[C@@H](O)[C@H](O)[C@H]2O[C@H]2O[C@H](CO)[C@@H](O)[C@H](O)[C@H]2O)CC[C@]2(C)[C@H]3CCC45OCC6(CC[C@@](C)(C=O)C[C@@H]64)[C@H](O)C[C@@]5(C)[C@]3(C)CC[C@@H]12 (stereo partly shown) [Saponin, reference compound]																160 ± 30 µg/mL
Cc1nn(-c2ccccc2)c(O)c1C(c1ccccc1[N+](=O)[O-])c1c(C)nn(-c2ccccc2)c1O [Compound 2c]	17 ± 8 µM	210 to 211 °C		68 ± 5%		1.5	3.1	53 ± 6 µM	26 ± 16 µM							
COc1ccc(C(c2c(C)nn(-c3ccccc3)c2O)c2c(C)nn(-c3ccccc3)c2O)cc1 [Compound 2e]	> 50 µM	176 to 177 °C	inactive	> 100%												
